Experimental data published in patent publication US20200078453A1, “METHODS OF TREATING A MAMMAL SUFFERING FROM OR SUSCEPTIBLE TO AN IMMUNE REACTION TO DRUG TREATMENT” (Idogen AB, priority 2015, published 2020).
Where two headings read alike, the source gives them in different places.

Legend:
[1] = tested on: IDO1 gene expression (mRNA level) in THP-1 cells; test: Induction of IDO1 in THP-1 cells, RT-qPCR; format: cell-based, human; conditions: compound alone, 0.1-10 micromolar
Method: THP-1 cells were harvested from appropriate number of T75 flasks. Cells were counted in a Bürker chamber, stained with 0.4% Trypan Blue. The appropriate number of cells for each experiment were transferred to a new tube and centrifuged at 1200 rpm, 5 min at room temperature (RT). The supernatant was discarded and fresh RPMI with 5% FBS were added to get a cell concentration of 2×10^5 cells/mL. The compound was added to the five separate wells in 6-well plates such that five different final concentrations were obtained after adding the cells. A control was added to one well in the 6-well plate to which cells were added. 1×10^6 cells per well were seeded out to achieve a total volume of 5 mL per well. The cells were incubated at 37° C. in 5% CO2 for 96 hours. After 96 hours the assay was stopped and the cells were lysed for the isolation of RNA.
Total RNA was extracted from THP-1 cells using the RNA RNeasy Mini extraction kit (Qiagen), according to the manufacturer's instructions. […]
Following RNA extraction and quantification of gene expression by RT-qPRC, as described above, induction of IDO1 gene expression using Samples 1 to 6 was investigated. […]
Following RNA extraction and quantification of gene expression by RT-qPRC, as described above, induction of IDO1 gene expression using Samples 7 to 12 was investigated.

[2] = cited from earlier work
[3] = cited from earlier work; remark: listed apart in the source

Compound	increase of IDO1 gene expression (maximum) [1]	half-life ([2]; 37° C. in PBS at pH 1.0)	half-life ([2]; 37° C. in PBS at pH 7.0) [days]	toxicity ([3]; at high concentrations)	cytotoxicity ([3]; in vitro and in vivo, at used concentrations)
Nc1ncn([C@@H]2O[C@H](CO)[C@@H](O)[C@H]2O)c(=O)n1 [5-azacytidine]	up to 23 fold	–	–	–	–
O=c1ncccn1[C@@H]1O[C@H](CO)[C@@H](O)[C@H]1O [Zebularine]	–	approximately 44 h	~21.2	toxic	minimally cytotoxic
Nc1ncn([C@H]2C[C@H](O)[C@@H](CO)O2)c(=O)n1 [decitabine, 5-aza-2′-deoxycytidine]	up to 101 fold	–	–	–	–
